Earlier results in patent US10568927B2, “Methods and compositions comprising desmopressin in combination with a beta-3-adrenergic receptor agonist” (Serenity Pharmaceuticals, LLC, priority 2013, dated 2020).

Settings: human, in vivo

NC(=O)CC[C@@H]1NC(=O)[C@H](Cc2ccccc2)NC(=O)[C@H](Cc2ccc(O)cc2)NC(=O)CCSSC[C@@H](C(=O)N2CCC[C@H]2C(=O)N[C@H](CCCN=C(N)N)C(=O)NCC(N)=O)NC(=O)[C@H](CC(N)=O)NC1=O [desmopressin, 1-desamino-8-D-arginine vasopressin]
half-life (known clearance rate): 1.5 to 2.0 h
